Each compound was assayed against S1P1/EDG1 (Homo sapiens, UniProt P21453) (assay: S1P1 CRE-bla CHOK1 reporter assay, inhibition of Forskolin induced cAMP). Conditions: agonist activity range, S1P1 CRE-bla CHOK1, 2 μM Forskolin; read-out: S1P1 ACTIVITY.
Format: cell-based
Procedure: Generation of S1P1-Mediated Inhibition of cAMP Reporter Assay
A mammalian expression plasmid containing S1P1/EDG1 cloned into pcDNA3.1 was purchased from Missouri S&T cDNA Resource Centre. […] S1P1/pcDNA3.1 was transfected into the CRE-bla CHO K1 (Invitrogen) cell line, and stable single cell clones were selected using standard techniques.
S1P1 CRE-Bla CHOK1 Reporter Assay—Characterization of S1P1 Agonists
Cells were seeded into 384-well black wall/clear bottom plates at 10^4 cells/well/19.5 μl assay media (DMEM-phenol free, 0.5% charcoal/dextran stripped serum, 2 mM glutamine, 0.1 mM NEAA, 1 mM Na-Pyruvate, 25 mM Hepes) and incubated for 18 hrs at 37° C. in 5% CO2. Dose response curves (10-point) were generated in 10 mM Hepes, 0.1% Pluronic F127, in the presence of Forskolin. Cells were treated with 0.5 μl compound in the presence of 2 μM Forskolin for 4 hrs at 37° C. The FRET-based β-lactamase fluorescent substrate (LiveBLAzer™-FRET B/G Loading Kit CC4-AM; Invitrogen) was prepared according to manufacturer's directions, and incubated with cells for 2 hrs at room temperature. […] Data was analyzed by non-linear regression to determine the EC50 for inhibition of Forskolin induced cAMP.

S1P1/EDG1, sequence (P21453 whole entry): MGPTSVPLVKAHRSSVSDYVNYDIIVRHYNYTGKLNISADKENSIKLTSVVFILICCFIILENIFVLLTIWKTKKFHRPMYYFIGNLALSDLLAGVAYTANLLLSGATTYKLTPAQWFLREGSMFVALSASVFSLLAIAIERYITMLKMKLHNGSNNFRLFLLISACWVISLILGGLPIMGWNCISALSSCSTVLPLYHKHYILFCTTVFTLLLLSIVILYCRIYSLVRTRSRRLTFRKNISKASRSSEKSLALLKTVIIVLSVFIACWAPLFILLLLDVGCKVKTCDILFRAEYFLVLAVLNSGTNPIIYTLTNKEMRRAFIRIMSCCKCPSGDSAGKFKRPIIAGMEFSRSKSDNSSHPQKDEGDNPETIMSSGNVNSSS

`CC(C)Oc1ccc(-c2nc(-c3cccc4c3CCC4NC[C@@H](O)CO)no2)cc1C#N` (mixture of isomers) [Compound 30] and `CC(C)Oc1ccc(-c2nc(-c3cccc4c3CCC4NC[C@H](O)CO)no2)cc1C#N` (mixture of isomers) [Compound 41] fall in the same range of EC50: 0.05 to 0.5 nM for the first, 0.05 to 0.5 nM for the second.

First: CC(C)Oc1ccc(-c2nc(-c3cccc4c3CCC4N3CC[C@@H](N)C3)no2)cc1C#N (mixture of isomers) [Compound 31]
Second: CC(C)Oc1ccc(-c2nc(-c3cccc4c3CCC4N3CC[C@H](N)C3)no2)cc1C#N (mixture of isomers) [Compound 32]
The EC50 of the first is higher: greater than 5 nM for the first, 0.5 to 5 nM for the second. The second is the more potent here.

`CC(C)Oc1ccc(-c2nc(-c3cccc4c3CCC4N3CC[C@@H](O)C3)no2)cc1C#N` (mixture of isomers) [Compound 33] and `CC(C)Oc1ccc(-c2nc(-c3cccc4c3CCC4N3CC[C@H](O)C3)no2)cc1C#N` (mixture of isomers) [Compound 34] fall in the same range of EC50: 0.5 to 5 nM for the first, 0.5 to 5 nM for the second.

Compared with `CC(C)Oc1ccc(-c2nc(-c3cccc4c3CCC4NC[C@@H](C)O)no2)cc1C#N` (mixture of isomers) [Compound 42], `CC(C)Oc1ccc(-c2nc(-c3cccc4c3CCC4NC[C@H](C)O)no2)cc1C#N` (mixture of isomers) [Compound 43] is lower in EC50: 0.5 to 5 nM for the first, 0.05 to 0.5 nM for the second. The second is the more potent here.

First: CC(C)Oc1ccc(-c2nc(-c3cccc4c3CC[C@H]4NC(C)C(=O)N(C)C)no2)cc1C#N (mixture of isomers) [Compound 58]
Second: CC(C)Oc1ccc(-c2nc(-c3cccc4c3CCC4NC(CO)CO)no2)cc1C#N (racemic) [Compound 17, 5-(3-(1-((1,3-dihydroxypropan-2-yl)amino)-2,3-dihydro-1H-inden-4-yl)-1,2,4-oxadiazol-5-yl)-2-isopropoxybenzonitrile]
The EC50 of the first is higher: 0.5 to 5 nM for the first, 0.05 to 0.5 nM for the second. The second is the more potent here.

First: N#Cc1cc(-c2nc(-c3cccc4c3CCC4NCCO)no2)ccc1OC[C@@H](O)CO (mixture of isomers) [Compound 104]
Second: CC(C)COc1ccc(-c2nc(-c3cccc4c3CCC4NCCO)no2)cc1C#N (racemic) [Compound 103, 5-(3-(1-((2-hydroxyethyl)amino)-2,3-dihydro-1H-inden-4-yl)-1,2,4-oxadiazol-5-yl)-2-isobutoxybenzonitrile]
The EC50 of the first is higher: greater than 5 nM for the first, 0.5 to 5 nM for the second. The second is the more potent here.

Compared with `CC(C)Oc1ccc(-c2nc(-c3cccc4c3CCC4NC(C)(C)CO)no2)cc1C#N` (racemic) [Compound 15], `CC(C)Oc1ccc(-c2nc(-c3cccc4c3CCC4NCCN)no2)cc1C#N` (racemic) [Compound 29] is lower in EC50: 0.5 to 5 nM for the first, 0.05 to 0.5 nM for the second. The second is the more potent here.

First: CC(C)Oc1ccc(-c2nc(-c3cccc4c3CCC4N3CCC(O)CC3)no2)cc1C#N (racemic) [Compound 16, 5-(3-(1-(4-hydroxypiperidin-1-yl)-2,3-dihydro-1H-inden-4-yl)-1,2,4-oxadiazol-5-yl)-2-isopropoxybenzonitrile]
Second: CC(C)Oc1ccc(-c2nc(-c3cccc4c3CCC4N3CCOCC3)no2)cc1C#N (racemic) [Compound 46]
The EC50 of the first is lower: 0.05 to 0.5 nM for the first, 0.5 to 5 nM for the second. The first is the more potent here.

Compared with `CC(C)Oc1ccc(-c2nc(-c3cccc4c3CCC4N3CC(C(=O)O)C3)no2)cc1C#N` (racemic) [Compound 18, 1-(4-(5-(3-cyano-4-isopropoxyphenyl)-1,2,4-oxadiazol-3-yl)-2,3-dihydro-1H-inden-1-yl)azetidine-3-carboxylic acid], `COC(=O)C1CN(C2CCc3c(-c4noc(-c5ccc(OC(C)C)c(C#N)c5)n4)cccc32)C1` (racemic) [Compound 36] is higher in EC50: less than 0.05 nM for the first, 0.05 to 0.5 nM for the second. The first is the more potent here.

`CC(C)Oc1ccc(-c2nc(-c3cccc4c3CCC4NC3CCNCC3)no2)cc1C#N` (racemic) [Compound 19, 2-isopropoxy-5-(3-(1-(piperidin-4-ylamino)-2,3-dihydro-1H-inden-4-yl)-1,2,4-oxadiazol-5-yl)benzonitrile] and `CC(C)Oc1ccc(-c2nc(-c3cccc4c3CCC4NC3CCCCC3)no2)cc1C#N` (racemic) [Compound 22] cannot be ordered by EC50: greater than 5 nM for the first, greater than 5 nM for the second.

Compared with `CC(C)Oc1ccc(-c2nc(-c3cccc4c3CCC4NCCN3CCCCC3)no2)cc1C#N` (racemic) [Compound 20], `CC(C)Oc1ccc(-c2nc(-c3cccc4c3CCC4NCCN3CCCC3)no2)cc1C#N` (racemic) [Compound 26] is lower in EC50: greater than 5 nM for the first, 0.5 to 5 nM for the second. The second is the more potent here.

First: CC(C)Oc1ccc(-c2nc(-c3cccc4c3CCC4NCCN3CCOCC3)no2)cc1C#N (racemic) [Compound 21]
Second: CC(C)Oc1ccc(-c2nc(-c3cccc4c3CCC4NCCN3CCNCC3)no2)cc1C#N (racemic) [Compound 25]
The EC50 of the first is lower: 0.5 to 5 nM for the first, greater than 5 nM for the second. The first is the more potent here.

`CC(C)Oc1ccc(-c2nc(-c3cccc4c3CCC4NC3CCOCC3)no2)cc1C#N` (racemic) [Compound 23] and `CNCCNC1CCc2c(-c3noc(-c4ccc(OC(C)C)c(C#N)c4)n3)cccc21` (racemic) [Compound 27] fall in the same range of EC50: 0.5 to 5 nM for the first, 0.5 to 5 nM for the second.

`CC(C)Oc1ccc(-c2nc(-c3cccc4c3CCC4N3CCN(CCO)CC3)no2)cc1C#N` (racemic) [Compound 24] and `CC(C)Oc1ccc(-c2nc(-c3cccc4c3CCC4N3CCNCC3)no2)cc1C#N` (racemic) [Compound 47] fall in the same range of EC50: 0.05 to 0.5 nM for the first, 0.05 to 0.5 nM for the second.

`CCN(CC)CCNC1CCc2c(-c3noc(-c4ccc(OC(C)C)c(C#N)c4)n3)cccc21` (racemic) [Compound 28] and `COCCNC1CCc2c(-c3noc(-c4ccc(OC(C)C)c(C#N)c4)n3)cccc21` (stereo in doubt) [Compound 88] fall in the same range of EC50: 0.5 to 5 nM for the first, 0.5 to 5 nM for the second.

Compared with `COC(=O)CCNC1CCc2c(-c3noc(-c4ccc(OC(C)C)c(C#N)c4)n3)cccc21` (racemic) [Compound 35], `COC(=O)CCCCNC1CCc2c(-c3noc(-c4ccc(OC(C)C)c(C#N)c4)n3)cccc21` (racemic) [Compound 147] is lower in EC50: 0.05 to 0.5 nM for the first, less than 0.05 nM for the second.

`CC(=O)OCCNC1CCc2c(-c3noc(-c4ccc(OC(C)C)c(C#N)c4)n3)cccc21` (racemic) [Compound 37] and `CCOC(=O)CNC1CCc2c(-c3noc(-c4ccc(OC(C)C)c(C#N)c4)n3)cccc21` (racemic) [Compound 40] fall in the same range of EC50: 0.05 to 0.5 nM for the first, 0.05 to 0.5 nM for the second.

`COCC(=O)NC1CCc2c(-c3noc(-c4ccc(OC(C)C)c(C#N)c4)n3)cccc21` (racemic) [Compound 39] and `CC(C)Oc1ccc(-c2nc(-c3cccc4c3CCC4NS(C)(=O)=O)no2)cc1C#N` (stereo in doubt) [Compound 70] fall in the same range of EC50: 0.05 to 0.5 nM for the first, 0.05 to 0.5 nM for the second.

`CC(C)Oc1ccc(-c2nc(-c3cccc4c3CCC4NCCS(C)(=O)=O)no2)cc1C#N` (racemic) [Compound 44] and `CNS(=O)(=O)CCNC1CCc2c(-c3noc(-c4ccc(OC(C)C)c(C#N)c4)n3)cccc21` (racemic) [Compound 45, 2-((4-(5-(3-cyano-4-isopropoxyphenyl)-1,2,4-oxadiazol-3-yl)-2,3-dihydro-1H-inden-1-yl)amino)-N-methylethanesulfonamide] fall in the same range of EC50: 0.05 to 0.5 nM for the first, 0.05 to 0.5 nM for the second.

First: CC(C)Oc1ccc(-c2nc(-c3cccc4c3CCC4N3CCCCC3)no2)cc1C#N (racemic) [Compound 48]
Second: CNCCS(=O)(=O)NC1CCc2c(-c3noc(-c4ccc(OC(C)C)c(C#N)c4)n3)cccc21 (stereo in doubt) [Compound 75]
The EC50 of the first is higher: greater than 5 nM for the first, 0.5 to 5 nM for the second. The second is the more potent here.

`N#Cc1cc(-c2nc(-c3cccc4c3CCC4NCCO)no2)ccc1O` (racemic) [Compound 102, 2-hydroxy-5-(3-(1-((2-hydroxyethyl)amino)-2,3-dihydro-1H-inden-4-yl)-1,2,4-oxadiazol-5-yl)benzonitrile] and `N#Cc1cc(-c2nc(-c3cccc4c3CCC4NCCO)no2)ccc1OCC(=O)O` (racemic) [Compound 109] cannot be ordered by EC50: greater than 5 nM for the first, greater than 5 nM for the second.

`COCCOc1ccc(-c2nc(-c3cccc4c3CCC4NCCO)no2)cc1C#N` (racemic) [Compound 106] and `CC(C)C(=O)Oc1ccc(-c2nc(-c3cccc4c3CCC4NCCO)no2)cc1C#N` (racemic) [Compound 108] cannot be ordered by EC50: greater than 5 nM for the first, greater than 5 nM for the second.

First: CC(C)Oc1ccc(-c2nc(-c3cccc4c3CCC4NS(=O)(=O)CCN(C)C)no2)cc1C#N (stereo in doubt) [Compound 77]
Second: CC(C)Oc1ccc(-c2nc(-c3cccc4c3CCC4NS(=O)(=O)c3ccccc3)no2)cc1C#N (stereo in doubt) [Compound 79]
The EC50 of the first is lower: 0.05 to 0.5 nM for the first, 0.5 to 5 nM for the second.

`CC(C)Oc1ccc(-c2nc(-c3cccc4c3CCC4NS(=O)(=O)c3ccc(C(=O)O)cc3)no2)cc1C#N` (stereo in doubt) [Compound 80] and `CC(=O)Nc1ccc(S(=O)(=O)NC2CCc3c(-c4noc(-c5ccc(OC(C)C)c(C#N)c5)n4)cccc32)cc1` (stereo in doubt) [Compound 82] cannot be ordered by EC50: greater than 5 nM for the first, greater than 5 nM for the second.

Compared with `CC(C)Oc1cc(C#N)cc(-c2nc(-c3cccc4c3CCC4N)no2)c1` (stereo in doubt) [Compound 97, (R)-3-(3-(1-amino-2,3-dihydro-1H-inden-4-yl)-1,2,4-oxadiazol-5-yl)-5-isopropoxy benzo-nitrile], `CCOc1ccc(-c2nc(-c3cccc4c3CC[C@H]4O)no2)cc1C#N` [Compound 3] is lower in EC50: greater than 5 nM for the first, 0.05 to 0.5 nM for the second. The second is the more potent here.

Compared with `CC(C)Oc1ccc(-c2nc(-c3cccc4c3CCC4N[C@@H](C)c3ccccc3)no2)cc1C#N` (stereo in doubt) [Compound 123], `CCOc1ccc(-c2nc(-c3cccc4c3CC[C@@H]4O)no2)cc1C#N` [Compound 4] is lower in EC50: greater than 5 nM for the first, 0.05 to 0.5 nM for the second. The second is the more potent here.

`CCOc1ccc(-c2nc(-c3cccc4c3CC[C@H]4O)no2)cc1OCC` [Compound 1] and `CCOc1ccc(-c2nc(-c3cccc4c3CC[C@@H]4O)no2)cc1OCC` [Compound 2] fall in the same range of EC50: 0.05 to 0.5 nM for the first, 0.05 to 0.5 nM for the second.
